This is an account of results in patent US20200207782A1, “CHEMICALLY ACTIVATED WATER-SOLUBLE PRODRUG” (SUMITOMO DAINIPPON PHARMA CO., LTD, priority 2017, published 2020).

In brackets after ≈: the same amount, converted by molar mass. Counter-ions that a name gives are not always drawn. A value given as a limit tells only on which side of the number the result lay.

One data set is described as follows: physchem. The following applies: thermodynamic from solid; for solubility at 24 h: pH 2, aqueous buffer.
Data set [1] can be described thus: Solution stability test (residual ratio and generation of active form in buffers of pH 2.0 to 9.0). In kind it is physicochemical. Details: Rate of generation of active form after 24 hours in buffer with pH of 7.4: tested at 25 µM. The settings on record: for Residual ratio / Rate of generation of active form after 24 hours in buffer with pH of 7.4: 25° C.; for Residual ratio: 25 umol/L; for Degradation behaviour in buffers (in words): pH 2.0 to 9.0; for Rate of generation of active form after 24 hours in buffer with pH of 7.4: pH 7.4 buffer. How it is done:
The test compounds were incubated at 25° C. at a concentration of 25 umol/L in a buffer prepared to have a pH of 2.0, 3.0, 5.0, 7.4, and 9.0. The compounds were measured by HPLC after 0, 3, 6, 9, 12, and 24 hours.
The buffers used at each pH are the following. • pH 2.0: 50 mmol/L glycine buffer • pH 3.0: 50 mmol/L citrate buffer • pH 5.0: 50 mmol/L citrate buffer • pH 7.4: 50 mmol/L phosphate buffer • pH 9.0: 50 mmol/L glycine buffer
The measurement conditions for HPLC are the following.
The yield of the Example and Reference Example compounds and active forms is calculated with each of the peak area of the Example and Reference Example compounds at 0 minutes and the peak area upon dissolution of the corresponding active form at 100 umol/L as 100%. The yield is denoted in terms of %

Data set [2] in a line: Evaluation of conversion rate to active form in human plasma. In kind it is in vitro ADME. The following applies: Human plasma, incubation time 120 minutes. As to the method: (§1) The ratio of decrease of a test compound and the conversion ratio to a corresponding active form (2-acetylthieno[3,2-f][1]benzofuran-4,8-dione) in human plasma and CD1 mouse plasma were measured for Example 1.
(§2) The test compounds were incubated at 37° C. at a concentration of 10 umol/L in human plasma (cat. no. 12250210, Cosmo Bio) and CD1 mouse plasma (cat. no. AP3054, KAC) and retrieved for a given time (0, 5, 10, 30, 60, and 120 minutes) and deproteinized, then analyzed by LC-MS. Acetonitrile comprising each of 10% quantity of 1 mol/L hydrochloric acid, 1% quantity of 46% citric acid, and phenytoin as an internal standard was used for deproteinization.
(§3) LC-MS measurement conditions were the following.
(§4) The yield of the Examples compounds and active form 2-acetylthieno[3,2-f][1]benzofuran-4,8-dione is calculated with each of the peak area of the Example compounds at 0 minutes and the peak area upon dissolution of 2-acetylthieno[3,2-f][1]benzofuran-4,8-dione at 100 umol/L as 100%. The yield is denoted in terms of %.
(§5) In the same manner as Example 1, the conversion ratio to an active form was measured for each of the various test compounds in human plasma and CD1 mouse plasma, with incubation time as 120 minutes. It was confirmed that the series of compounds of the invention was converted to an active form with a small interspecies difference in human plasma and CD1 mouse plasma.
(§6) The yield of the active forms is calculated with the each peak area upon dissolution of the generated active form at 100 umol/L as 100%. The yield is denoted in terms of %.

Data set [3] in a line: Evaluation of conversion rate to active form in CD1 mouse plasma. The data set is classed as in vitro ADME. The settings on record: CD1 mouse plasma, incubation time 120 minutes. As to the method: as §1, §2, §3, §4, §5, §6

In general, solubility refers to the concentration that dissolves in the medium under given conditions.

Procedure for physchem: The solubility of the water-soluble prodrugs described in the Examples and the Reference Examples was measured. […] The filtrate was measured by HPLC.

`CC(=O)c1cc2c(o1)C(=O)c1cccc(O)c1C2=O` [2-acetyl-5-hydroxynaphtho[2,3-b]furan-4,9-dione, reference compound] yielded a solubility in “physchem” (50 mmol/L glycine buffer, pH 3, aqueous buffer) of 1 µg/mL (≈ 3.9 µM).

In the data set “physchem” (50 mmol/L glycine buffer), `CC1=CC(=O)c2ccccc2C1=O` [2-methylnaphthalen-1,4-dione, reference compound] yielded a solubility at 24 h of 97 µg/mL (≈ 563 µM).

As for `O=C1C(=O)C(c2ccccc2)=C2OCOC2=C1c1ccccc1` [4,7-diphenyl-1,3-benzodioxol-5,6-dione, reference compound], the solubility at 24 h in the data set “physchem” (50 mmol/L glycine buffer) is 0.3 µg/mL (≈ 0.986 µM).

Take `Cc1cc(OC(=O)NCCNCC(=O)O)c2ccccc2c1OC(=O)NCCNCC(=O)O` [Example 2, 2,2′-[(2-Methylnaphthalene-1,4-diyl)bis(oxycarbonyliminoethane-2,1-diylimino)]diacetic acid dihydrochloride]: the Residual ratio is listed as 100% in data set [1] (pH2.0 buffer, 0 hr); 100% in data set [1] (pH2.0 buffer, 3 hr); 99.8% in data set [1] (pH2.0 buffer, 6 hr); 99.7% in data set [1] (pH2.0 buffer, 9 hr); 102% in data set [1] (pH2.0 buffer, 12 hr); 100% in data set [1] (pH2.0 buffer, 24 hr). In addition, the Residual ratio was found to be 101% in data set [1] (pH3.0 buffer, 0 hr); 101% in data set [1] (pH3.0 buffer, 3 hr); 101% in data set [1] (pH3.0 buffer, 6 hr); 100% in data set [1] (pH3.0 buffer, 9 hr); 100% in data set [1] (pH3.0 buffer, 12 hr); 101% in data set [1] (pH3.0 buffer, 24 hr). Moreover, the Residual ratio is reported as 101% in data set [1] (pH5.0 buffer, 0 hr); 101% in data set [1] (pH5.0 buffer, 3 hr); 102% in data set [1] (pH5.0 buffer, 6 hr); 102% in data set [1] (pH5.0 buffer, 9 hr); 100% in data set [1] (pH5.0 buffer, 12 hr); 102% in data set [1] (pH5.0 buffer, 24 hr). Besides, the Residual ratio in data set [1] (pH7.4 buffer, 0 hr) is on record as 102%; in data set [1] (pH7.4 buffer, 3 hr), 50.7%; in data set [1] (pH7.4 buffer, 6 hr) it was 32.0%; in data set [1] (pH7.4 buffer, 9 hr), 16.2%; in data set [1] (pH7.4 buffer, 12 hr, dihydrochloride), 0%; in data set [1] (pH7.4 buffer, 24 hr), 0.0%. Moreover, the Residual ratio in data set [1] (pH9.0 buffer, 0 hr) came to 44.5%; in data set [1] (pH9.0 buffer, 3 hr, dihydrochloride), 0%; in data set [1] (pH9.0 buffer, 6 hr), 0.0%; in data set [1] (pH9.0 buffer, 9 hr), 0.0%; in data set [1] (pH9.0 buffer, 12 hr), 0.0%; in data set [1] (pH9.0 buffer, 24 hr) it was 0.0%. For the same compound, the “Degradation behaviour in buffers (in words)” value (shortened to “Degradation behaviour”) in data set [1] is “pH dependent and chemical degradation progressed”. The “Rate of generation of active form after 24 hours in buffer with pH of 7.4” value (“Rate of generation of active form” for short) in data set [1] came to 7%. In addition, the “Stability in solution (in words)” value in data set [1] (pH of 2.0, 25° C.) is listed as “very stable”; in data set [1] (pH of 3.0, 25° C.), “very stable”; in data set [1] (pH of 5.0, 25° C.), “very stable”. Further, the solubility at 24 h in the data set “physchem” was > 10000 µg/mL.

On to `CC1(C)CCc2c(OC(=O)NCCNCC(=O)O)c(OC(=O)NCCNCC(=O)O)c3ccccc3c2O1` [Example 4, 2,2′-[(2,2-Dimethyl-3,4-dihydro-2H-benzo[H]chromene-5,6-diyl)bis(oxycarbonyliminoethane-2,1-diylimino)]diacetic acid dihydrochloride], for which the “Degradation behaviour” value in data set [1] was “pH dependent and chemical degradation progressed”. In addition, the “Stability in solution (in words)” value in data set [1] (pH of 2.0, 25° C.) is “sufficient stability”; in data set [1] (pH of 3.0, 25° C.), “sufficient stability”. In addition, the solubility at 24 h in the data set “physchem” was > 10000 µg/mL.

Take `CN1CC[C@H](c2c(O)cc(OC(=O)N(C)CCN)c3c(=O)cc(-c4ccccc4Cl)oc23)[C@H](O)C1` [Example 9, 2-(2-chlorophenyl)-7-hydroxy-8-[(3S,4R)-3-hydroxy-1-methylpiperidin-4-yl]-4-oxo-4H-chromen-5-yl (2-aminoethyl)methylcarbamate ditrifluoroacetate]: in data set [1], the “Degradation behaviour” value is “pH dependent and chemical degradation progressed”. For the same compound, the “Rate of generation of active form” value in data set [1] came to 23%. The “Stability in solution (in words)” value in data set [1] (pH of 2.0, 25° C.) is “stable”; in data set [1] (pH of 3.0, 25° C.) it was “stable”; in data set [1] (pH of 5.0, 25° C.) it was “stable”.

Take `CNCCN(C)C(=O)Oc1cc(O)c2c(=O)cc(-c3ccccc3Cl)oc2c1[C@H]1CCN(C)C[C@H]1O` [Example 10, 2-(2-Chlorophenyl)-5-hydroxy-8-[(3S,4R)-3-hydroxy-1-methylpiperidin-4-yl]-4-oxo-4H-chromen-7-yl methyl[2-(methylamino)ethyl]carbamate ditrifluoroacetate]: the “Degradation behaviour” value in data set [1] was “pH dependent and chemical degradation progressed”. Also, the “Rate of generation of active form” value in data set [1] came to 96%. Besides, the “Stability in solution (in words)” value is listed as “sufficient stability” in data set [1] (pH of 2.0, 25° C.) and “sufficient stability” in data set [1] (pH of 3.0, 25° C.).

With `CNCCN(C)C(=O)Oc1cc(O)c([C@H]2CCN(C)C[C@H]2O)c2oc(-c3ccccc3Cl)cc(=O)c12` [Example 11, 2-(2-Chlorophenyl)-7-hydroxy-8-[(3S,4R)-3-hydroxy-1-methylpiperidin-4-yl]-4-oxo-4H-chromen-5-yl methyl[2-(methylamino)ethyl]carbamate ditrifluoroacetate], the “Degradation behaviour” value in data set [1] was “pH dependent and chemical degradation progressed”. In addition, the “Stability in solution (in words)” value is given as “stable” in data set [1] (pH of 2.0, 25° C.); “stable” in data set [1] (pH of 3.0, 25° C.); “stable” in data set [1] (pH of 5.0, 25° C.).

As for `COC(=O)[C@H](CCNC(=O)Oc1c(C)c(CCCCCCCCCCOC(=O)OC(C)(C)C)c(OC(=O)NCC[C@H](NC(=O)OC(C)(C)C)C(=O)OC)c(OC)c1OC)NC(=O)OC(C)(C)C` [Reference Example 11, Dimethyl (2S,2′S)-4,4′-[(2-{10-[(tert-butoxycarbonyl)oxy]decayl}-5,6-dimethoxy-3-methylbenzene-1,4-diyl)bis(oxycarbonylimino)]bis{2-[(tert-butoxycarbonyl)amino]butanoate}], the “Conversion ratio to an active form (Measurement value %)” value in data set [2] and in data set [3] was 100% throughout. Besides, the “Rate of generation of active form” value in data set [1] was 91%.
